From patent EP4733303A1, “MUSCARINIC M4 RECEPTOR AGONIST AND USE THEREOF” (Haisco Pharmaceutical Group Co., Ltd., priority 2023, dated 2024)

What was measured:
[1] = Pharmacokinetic test in rats (plasma and brain); assay type: in vivo, SD rats; conditions: for F: i.g. 10 mg/kg versus i.v. 2.5 mg/kg; for Cmax / clearance / half-life / AUC(0-t): plasma
Excerpt: 3.1 Experimental animals: male SD rats, about 220 g, 6-8 weeks old, divided into an intravenous group and an intragastric group.
3.2 Experimental design: on the day of the experiment, the SD rats were randomly grouped according to their body weights. […] Table 5. Administration information
(§1) The whole blood was centrifuged to separate the plasma; the brain tissue was rinsed with cold physiological saline to remove the residual blood on the surface, drained out and then homogenized. Before analysis and detection, all samples were stored at -80°C, and the samples were quantitatively analysed by LC-MS/MS. Table 6. Pharmacokinetic parameters of test compound in plasma of rats

M4 receptor = biological target: T1, M4 receptor (Homo sapiens, UniProt P08173); assay: PAM agonistic activity of compound on M4 receptor (FLIPR Calcium 6 assay in M4-CHO cells); assay type: cell-based; conditions: with acetylcholine (Ach), final concentration 3 nM
T1 construct: expressed in transfected cells; host or cells: CHO (M4-CHO cells)
T1 sequence (P08173 1-479): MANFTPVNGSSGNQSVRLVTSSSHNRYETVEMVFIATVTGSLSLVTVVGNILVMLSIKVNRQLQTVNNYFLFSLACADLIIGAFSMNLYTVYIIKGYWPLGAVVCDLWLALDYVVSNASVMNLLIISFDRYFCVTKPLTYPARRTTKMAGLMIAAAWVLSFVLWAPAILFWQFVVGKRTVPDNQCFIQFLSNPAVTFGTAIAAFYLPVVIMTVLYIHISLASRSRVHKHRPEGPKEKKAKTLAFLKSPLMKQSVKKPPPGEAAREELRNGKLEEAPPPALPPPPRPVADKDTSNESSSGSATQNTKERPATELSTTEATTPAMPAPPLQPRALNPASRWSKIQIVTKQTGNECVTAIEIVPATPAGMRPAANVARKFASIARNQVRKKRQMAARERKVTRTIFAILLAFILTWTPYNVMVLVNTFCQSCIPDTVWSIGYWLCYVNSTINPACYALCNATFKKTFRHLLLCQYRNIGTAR
Experimental: • 1). Cell plating: M4-CHO cells were digested, collected, and resuspended. After cell counting, the cell suspension was seeded into a 384-well cell plate at a density of: 1.2 × 10^4 cells/25 µL/well. The cell plate was then cultured in a 37°C, 5% CO2 incubator for about 16-20 h. • 2). Day 2: Assay Buffer was prepared according to the instructions of the FLIPR Calcium 6 Assay Kit. Component A (20×) was thawed to room temperature and diluted with the Assay Buffer to prepare a loading buffer (1×), which was stored at room temperature until use. • 3). The culture medium was removed from the cell plate. 40 µL of the loading buffer (1×) was quickly added to each well. The cell plate was then centrifuged and incubated at 37°C in the dark for 120 min. • 4). Working solutions of the positive control compound and the test compounds were prepared. An acetylcholine (Ach) agonist compound solution was prepared (final concentration: 3 nM). The PAM compound and the Ach agonist solution were mixed at a 1 : 1 ratio, and the mixture was transferred into a 384-well compound source plate at 20 µL per well. • 5). The cell plate, the compound source plate, and the pipette tips were placed into the corresponding positions within the FLIPR instrument. 10 µL of the diluted compound from step 4 was added into each experimental well using the FLIPR Tetra. Data was collected at the wavelength of 515 nm-575 nm. • 6). The signal values were plotted against the compound concentrations. Nonlinear regression analysis was performed using GraphPad Prism software for curve fitting and EC50 calculation.
The experimental results are shown in Table 1, where A represents EC50 < […]; B represents 100 nM ≤ EC50 < 500 nM, and C represents 500 nM ≤ EC50. Table 1. Agonistic activity of compounds on M4 receptor

[2] = Pharmacokinetic test in mice (plasma and brain); assay type: in vivo, C57 mice; conditions: for F: i.g. 10 mg/kg versus i.v. 2.5 mg/kg; for Cmax / clearance / half-life / AUC(0-t) / Kp: mouse; for Kp: read-out: Brain/plasma ratio
Excerpt: 2.1 Experimental animals: male C57 mice, 20-25 g, divided into an intravenous group and an intragastric group.
2.2 Experimental design: on the day of the experiment, the C57 mice were randomly grouped according to their body weights. […] Table 2. Administration information
as §1, with “3.” for “6.”, “compounds” for “compound”, “mice” for “plasma of rats”

[3] = Pharmacokinetic test in monkeys; assay type: in vivo; conditions: male cynomolgus monkeys
Experimental: Experimental animals: male cynomolgus monkeys, 3-5 kg, 3-6 years old, divided into an intravenous group and an intragastric group.
Experimental method: on the day of the experiment, the monkeys were randomly grouped according to their body weights. […] Table 9. Administration information
Before and after the administration, 1.0 mL of blood was taken from the limb veins and placed in an EDTAK2 centrifuge tube. Centrifugation was carried out at 5000 rpm at 4°C for 10 min, and the plasma was collected. […] Before analysis and detection, all samples were stored at -80°C, and the samples were quantitatively analysed by LC-MS/MS. Table 10. Pharmacokinetic parameters of test compound in plasma of monkeys

[4] = rat, in vivo, male SD rats, i.v. 2.5 mg/kg and i.g. 10 mg/kg groups, route of the parameter not given
[5] = male C57 mice, plasma, i.v. 2.5 mg/kg and i.g. 10 mg/kg groups, route of the parameter not given
[6] = male C57 mice, plasma, i.v. 2.5 mg/kg and i.g. 10 mg/kg groups, route of the parameter not given, read-out: AUC0-t
[7] = rat, male SD rats, i.v. 2.5 mg/kg and i.g. 10 mg/kg groups, route of the parameter not given
[8] = cynomolgus monkey, plasma, i.v. 1 mg/kg and i.g. 5 mg/kg groups, route of the parameter not given
[9] = in vivo, male C57 mice, plasma, i.v. 2.5 mg/kg and i.g. 10 mg/kg groups, route of the parameter not given

## Cc1cc(C)c2c(n1)CN(C(=O)CC1CN(c3ccnc(-n4ccc(C)n4)c3)C1)C2 [Compound 29]
[1]; male SD rats
  F: >98%
[1]; [4]
  Cmax: 7960 ng/mL
  clearance: 18.9 mL/min/kg
  half-life: 0.646 h
[1]; rat, in vivo, male SD rats, i.v. 2.5 mg/kg and i.g. 10 mg/kg groups, route of the parameter not given, read-out: AUC0-t
  AUC(0-t): 12200 ng·h/mL
M4 receptor
  EC50: < 100 nM

## Cc1cc(C)c2c(n1)CN(C(=O)CC1CN(c3ccnc(C(F)(F)F)c3)C1)C2 [DZ-01, reference compound]
[2]; male C57 mice
  F: >98%
[2]; [5]
  Cmax: 3800 ng/mL
  clearance: 75.1 mL/min/kg
  half-life: 1.23 h
[2]; [6]
  AUC(0-t): 3610 ng·h/mL

## Cc1cc(-c2cnn(C)c2)nc2c1CN(C(=O)CC1CN(c3ccnc(OC4CC(F)(F)C4)c3)C1)C2 [Compound 104]
[2]; male C57 mice
  F: >98%
[2]; mice, i.g. (10 mg/kg)
  Brain tissue AUC0-t: 4776 ng·h/g
[2]; in vivo, po, mice, i.g. (10 mg/kg)
  Kp: 0.528
[2]; in vivo, po, mice, i.g. (10 mg/kg), read-out: Plasma AUC0-t
  AUC(0-t): 2520 ng·h/mL
[2]; [5]
  Cmax: 4540 ng/mL
  clearance: 11.1 mL/min/kg
  half-life: 2.2 h
[2]; [6]
  AUC(0-t): 16900 ng·h/mL
M4 receptor
  EC50: < 100 nM

## Cc1cc(=O)n(C(F)F)c2c1CN(C(=O)CC1CN(c3ccnc(OC4CC(F)(F)C4)c3)C1)C2 [Compound 128]
[1]; male SD rats
  F: >98%
[1]; rat, brain/plasma, po, rats, i.g. (10 mg/kg), read-out: Brain/plasma ratio
  Kp: 0.497
[1]; rat, po, rats, i.g. (10 mg/kg), read-out: Plasma AUC0-t
  AUC(0-t): 46100 ng·h/mL
[1]; [7]
  Cmax: 5140 ng/mL
  clearance: 6.33 mL/min/kg
  half-life: 4.68 h
[1]; rat, male SD rats, i.v. 2.5 mg/kg and i.g. 10 mg/kg groups, route of the parameter not given, read-out: AUC0-t
  AUC(0-t): 34000 ng·h/mL
[1]; rats, i.g. (10 mg/kg)
  Brain tissue AUC0-t: 22917 ng·h/g
[2]; male C57 mice
  F: >98%
[2]; mice, i.g. (10 mg/kg)
  Brain tissue AUC0-t: 5618 ng·h/g
[2]; brain/plasma, po, mice, i.g. (10 mg/kg)
  Kp: 0.581
[2]; plasma, po, mice, i.g. (10 mg/kg), read-out: Plasma AUC0-t
  AUC(0-t): 9680 ng·h/mL
[2]; [5]
  Cmax: 6030 ng/mL
  clearance: 6.91 mL/min/kg
  half-life: 2.25 h
[2]; [6]
  AUC(0-t): 25700 ng·h/mL
M4 receptor
  EC50: < 100 nM
[3]; [8]
  AUC(0-t): 5940 ng·h/mL
  Cmax: 495 ng/mL
  clearance: 10.1 mL/min/kg
  half-life: 7.19 h
[3]; i.g. 5 mg/kg versus i.v. 1 mg/kg
  F: 71.4%

## Cc1cc(C2CCOC2)nc2c1CN(C(=O)CC1CN(c3ccnc(C(F)(F)F)c3)C1)C2 (single isomer, unassigned) [Compound 153]
M4 receptor
  EC50: < 100 nM

## Cc1ccn(-c2cc(N3CC(CC(=O)N4Cc5nc(COC6COC6)cc(C)c5C4)C3)ccn2)n1 [Compound 85]
M4 receptor
  EC50: < 100 nM

## Cc1ccn(-c2cc(N3CC(CC(=O)N4Cc5c(C)cc(=O)n(C)c5C4)C3)cnn2)n1 [Compound 133]
M4 receptor
  EC50: < 100 nM

## Cc1nc(-c2cnn(C)c2)nc2c1CN(C(=O)CC1CN(c3ccnc(C(F)(F)F)c3)C1)C2 [Compound 122]
[2]; male C57 mice
  F: >98%
[2]; [9]
  Cmax: 6400 ng/mL
  clearance: 9.24 mL/min/kg
  half-life: 2.94 h
[2]; in vivo, male C57 mice, plasma, i.v. 2.5 mg/kg and i.g. 10 mg/kg groups, route of the parameter not given, read-out: AUC0-t
  AUC(0-t): 26300 ng·h/mL
M4 receptor
  EC50: < 100 nM

## Cc1c2c(n(C(F)F)c(=O)c1F)CN(C(=O)CC1CN(c3ccnc(OC4CC(F)(F)C4)c3)C1)C2 [Compound 177]
M4 receptor
  EC50: < 100 nM

## C=C1CC(Oc2cc(N3CC(CC(=O)N4Cc5c(C)cc(=O)n(C(F)F)c5C4)C3)ccn2)C1 [Compound 184]
M4 receptor
  EC50: < 100 nM

## Cc1ccn(-c2cc(N3CC(CC(=O)N4Cc5nc(-c6cnn(C)c6)nc(C)c5C4)C3)ccn2)n1 [Compound 123]
M4 receptor
  EC50: < 100 nM

## Cc1cc(-c2cnn(C(F)F)c2)nc2c1CN(C(=O)CC1CN(c3ccnc(C(F)(F)F)c3)C1)C2 [Compound 162]
M4 receptor
  EC50: < 100 nM

## Cc1cc(C)c2c(n1)CN(C(=O)CC1CN(c3ccnc(-n4cccn4)c3)C1)C2 [Compound 56]
M4 receptor
  EC50: < 100 nM
